Measurements reported in patent publication EP4789662A1, “POWDER FOR INHALATION” (Nagase Viita Co., Ltd., priority 2023, dated 2025).

Assays:
[1] = test system: chronic obstructive pulmonary disease (COPD); experiment: Animal test 1: OVA-induced COPD in rats, lung tissue and BALF infiltrating cells; format: in vivo; conditions: OVA-challenge; p.o. 60 mg/kg; BALF 24 h after OVA; Mean±S.E. (n=4)
Experimental: In order to evaluate the pharmacological effect of the mT/PL-RP (Example 1) via intratracheal administration, chronic obstructive pulmonary disease (COPD) was induced in rats, and the effect was compared with the effect via oral administration. Ovalbumin (OVA, Sigma-Aldrich) was intraperitoneally administered three times at seven-day intervals. Next day, the mT/PL-RP (Example 1) (5 mg-PL/kg) was intratracheally administered, or the PL (Comparative Example 2) (60 mg/kg) was orally administered. One hour after the administration, inflammation was caused by intratracheally administering micronized OVA powder to induce COPD. Twenty-four hours after the inflammation caused by OVA administration, the lungs were excised and bronchoalveolar lavage fluid (BALF) was collected. The lung tissue was stained with peroxidase by a standard method and subsequently observed. […] FIG. 8 and Table 6 show the result.

[2] = Animal test 2: amount of PL transferred into blood (pharmacokinetics); format: in vivo; conditions: rat, po, rats, p.o. 60 mg/kg, Mean±S.E. (n=4-5)
Experimental: The amount of PL transferred into blood was evaluated in oral administration and intratracheal administration. The blood PL concentrations up to 12 hours after administration were measured over time in a group of rats having undergone intratracheal administration of the mT/PL-RP (Example 1) (5 mg-PL/kg) and in a group of rats having undergone oral administration of the PL (Comparative Example 2) (60 mg/kg). FIG. 9 and Table 7 show the results.

Cmax [2]: 250 ± 160 ng/mL
Tmax [2]: 1.6 ± 0.6 h
Compound: O=C(Nc1cccc2c(=O)cc(-c3nnn[nH]3)oc12)c1ccc(OCCCCc2ccccc2)cc1 [Crystalline PL, pranlukast]
Inflammatory cells in BALF, Eosinophils [1]: 1.5 ± 0.6 × 10^4 cells/mL
Inflammatory cells in BALF, Macrophages [1]: 3.1 ± 1.3 × 10^4 cells/mL
Inflammatory cells in BALF, Neutrophils [1]: 11.5 ± 2.7 × 10^4 cells/mL
